Measurements: patent US11826332B2, “Antimicrobial compositions and uses thereof” (Board of Regents, The University of Texas System, priority 2016, dated 2023)

Key:
[1] = tested on: vancomycin resistant Enterococcus (VRE); assay: Disinfection of colonized urinary catheter external surface, transient contact; format: cell-based; conditions: in 1.5% CMC solution; transient contact exposure of a few minutes; three 1 cm catheter segments
[2] = tested on: methicillin resistant Staphylococcus aureus (MRSA); assay: as above; format: cell-based; conditions: in 1.5% CMC solution; transient contact exposure of a few minutes; three 1 cm catheter segments
[3] = tested on: Escherichia coli (E. coli); assay: as above; format: cell-based; conditions: in 1.5% CMC solution; transient contact exposure of a few minutes; three 1 cm catheter segments
[4] = tested on: Candida albicans (C. albicans); assay: as above; format: cell-based; conditions: in 1.5% CMC solution; transient contact exposure of a few minutes; three 1 cm catheter segments
[5] = tested on: Candida glabarata (CG) biofilm; assay: Biofilm eradication model on silicone discs, time to complete eradication; format: cell-based; conditions: Table 2; disinfecting solutions pH 4.0-4.5; >120 = not completely eradicated within 120 minutes exposure
[6] = tested on: Candida albicans (CA) biofilm; assay: as above; format: cell-based; conditions: Table 2; disinfecting solutions pH 4.0-4.5; >120 = not completely eradicated within 120 minutes exposure
[7] = tested on: methicillin-resistant Staphylococcus aureus (MRSA) biofilm; assay: as above; format: cell-based; conditions: Table 2; disinfecting solutions pH 4.0-4.5; >120 = not completely eradicated within 120 minutes exposure
[8] = tested on: multidrug-resistant Pseudomonas aeruginosa (PS) biofilm; assay: as above; format: cell-based; conditions: Table 2; disinfecting solutions pH 4.0-4.5; >120 = not completely eradicated within 120 minutes exposure
[9] = CRC Handbook of Chemistry and Physics; cited from earlier work
MRSA biofilm = assay: Modified Kuhn's model, quantitative time-to-kill biofilm eradication; format: cell-based, Staphylococcus aureus; conditions: 60 minutes exposure
Protocol: In vitro antimicrobial assessments of PG, CAP, and PG+CAP solutions were conducted using an established time-to-kill biofilm eradication model, the modified Kuhn's model (Kuhn et al., 2002). Briefly, 1 cm diameter silicone discs, were placed into a 24-well tissue culture plate and incubated with donor human plasma at 37° C. for 24 hours. The plasma was then removed, replaced with 1 mL of 5.5×10^5 CFU of bacterial (MRSA, Pseudomonas aeruginosa) or yeast (Candida albicans) inocula and incubated at 37 C for an additional 24 hrs. Inoculum was removed and the discs were washed shaking at 100 rpm for 30 minutes in 0.9% sterile saline in order to remove any planktonic organisms. After washing, discs were exposed to 1 mL various disinfectant solutions and incubated at 37° C. for 30 min or 60 min. Saline flush solution was used a negative control. […] Resulting solutions were quantitatively cultured by plating 100 μL onto Muller-Hinton (for bacteria) or Sabouraud dextrose (for yeast) agar. […]
Statistical analyses: The Kruskal-Wallis test was used to determine whether there was a significant difference in the medians in any of the lock solutions tested. Pairwise comparisons were assessed using the Mann-Whitney U test to […] performance of PG+CAP and CAP lock solutions at specified time points. […]

Row | SMILES | Median recoveries, VRE [1] | Median recoveries, MRSA [2] | Median recoveries, E. coli [3] | Median recoveries, C. albicans [4] | time to complete biofilm eradication, CG [5] [min] | time to complete biofilm eradication, CA [6] [min] | time to complete biofilm eradication, MRSA [7] [min] | time to complete biofilm eradication, PS [8] [min] | pK of CAP [9] | reductions in viable cells in MRSA biofilm (MRSA biofilm)
1 | OO [0.3% H2O2, hydrogen peroxide] | >50,000 CFU/cm of catheter | 0 CFU/cm of catheter | 2700 CFU/cm of catheter | >50,000 CFU/cm of catheter |  |  |  |  |  | 
2 | O=[N+]([O-])OCC(CO[N+](=O)[O-])O[N+](=O)[O-] [0.03% nitroglycerin (GTN), glyceryl trinitrate] |  |  |  |  | >120 | >120 | >120 | >120 |  | 
3 | CCCCCCCC(=O)O [0.4% Caprylic Acid (CAP), caprylic acid (octanoic acid)] |  |  |  |  | 60 | 120 | 120 | 60 | approximately 4.8 | able to reduce, but not completely eradicate
